As usually defined, the CC50 is the concentration that lowers cell viability or growth by half. A word on the IC50: it is the concentration needed to halve the response being measured.

The source of these data is PMC7464173, “Phosphate Derivatives of 3-Carboxyacylbetulin: SynThesis, In Vitro Anti-HIV and Molecular Docking Study” (Biomolecules, 2020).

Data set [1] in a line: Cytotoxicity, MTT assay in CEM-T4 cells. As to conditions: human. It is filed as cell-based. The protocol: For the determination of compounds’ cytotoxicity, CEM-T4 cells were obtained from the NIH AIDS Reagent Program (NIH, US) and were cultured in RPMI supplemented with 10% FCS (Biochrom) and antibiotics at 37 °C in 5% CO2 on 96-well culture plates. The experiments were carried out in media containing tested compounds in concentrations of the appropriate range. Cultures in a neat medium (RPMI, 10% FCS) were used as a control. Viability of cells was determined after 7 days using the MTT assay in which 10 μL of MTT solution (5 mg/mL) was added to each culture plate well, and cultures were incubated for 3 h at a temperature of 37 °C. After the centrifugation, the supernatant was removed, and DMSO was added for lysis of the cells and to dissolve crystals of formazan. Color intensity was measured with a plate reader at 560 nm.
Newly synthesized compounds 2–5 were evaluated for their activity against HIV-1 in a CEM-T4 cell line. First, a cytotoxicity assessment of the synthesized derivatives was performed using the MTT [3-(4,5-dimethylthiazol-2-yl)-2,5-diphenyltetrazolium bromide]. The results were expressed as CC50 (concentration of compound causing 50% cell death). Anti-HIV activity was expressed as IC50 (concentration of compound causing 50% inhibition of replication) and consisted of measurements of p24 antigen made using the Genscreen ULTRA HIV Ag-Ab Kit.
(In general: Formazan colour is commonly taken as a measure of viable cells.)

Data set [2] concerns HIV-1. The data set is described as follows: Anti-HIV-1 replication activity, p24 antigen ELISA in HIV-infected CEM-T4 cell line. Particulars: for IC50: Human immunodeficiency virus 1, CEM-T4, 168 h; for ability to inhibit HIV replication: tested range of concentrations 0.02 to 10 μM; for TI: therapeutic index (selectivity index), the ratio of CC50 to IC50. It is filed as cell-based. For orientation: ELISA stands for enzyme-linked immunosorbent assay.

The subject of data set [3] is HIV-1. More on the design: method as in PMID 31640137. Particulars: in vitro anti-HIV-1 activity; cited from earlier work.
For data set [4] the following is noted: cytotoxicity; cited from earlier work.
Setting [5] is: concentration causing 50% cell death, CEM-T4 cells, MTT, 7 days, read-out: CC50.
The mark [6] stands for this setting: cytotoxicity values, CEM-T4 cells, read-out: IC50 (cytotoxicity).

Like-named read-outs stand apart in the source and are kept apart here.

With `C=C(C)[C@@H]1CC[C@]2(COP(=O)(OCC)OCC)CC[C@]3(C)C(CCC4[C@@]5(C)CC[C@H](O)C(C)(C)C5CC[C@]43C)C12` (some centres unmarked) [Compound 2, 28-Diethoxyphosphorylbetulin], the CC50 at 7 days in data set [1] (setting [5]) stood at 18.3 ± 1.64 µM. In the data set on HIV-1 [2], the IC50 was above 10 µM and the “ability to inhibit HIV replication” value is on record as “did not demonstrate the ability to inhibit HIV replication”.

On to `C=C(CP(=O)(OCC)OCC)[C@@H]1CC[C@]2(C(=O)O)CC[C@]3(C)C(CC[C@@H]4[C@@]5(C)CC[C@H](OC(=O)CC(C)(C)C(=O)O)C(C)(C)C5CC[C@]43C)[C@@H]12` (some centres unmarked) [Compound 6, 30-diethoxyphosphoryl-3-O-(3′,3′-dimethylsuccinyl)betulinic acid], for which the IC50 with HIV-1 [3] is 0.02 µM. In addition, the CC50 in data set [4] was 68 µM.

On to `C=C(C)[C@@H]1CC[C@]2(CO)CC[C@]3(C)[C@H](CC[C@@H]4[C@@]5(C)CC[C@H](O)C(C)(C)[C@@H]5CC[C@]43C)[C@@H]12` [Compound 1, Betulin], for which the CC50 at 7 days in data set [1] (setting [5]) is 46 ± 3.01 µM. Besides, in the data set on HIV-1 [2], the IC50 is above 10 µM and the “ability to inhibit HIV replication” value was “did not demonstrate the ability to inhibit HIV replication”.

As to `C=C(C)[C@@H]1CC[C@]2(COP(=O)(OCC)OCC)CC[C@]3(C)C(CCC4[C@@]5(C)CC[C@H](OC(=O)CC(C)(C)CC(=O)O)C(C)(C)C5CC[C@]43C)C12` (some centres unmarked) [Compound 4, 28-Diethoxyphosphoryl-3-O-(3′,3′-dimethylglutaryl)betulin], the CC50 at 7 days in data set [1] (setting [5]) is 19.7 ± 1.64 µM. Besides, the IC50 at 7 days in data set [1] (setting [6]) came to 19.7 µM. For the same compound, in the data set on HIV-1 [2], the IC50 was determined as 0.04 ± 0.01 µM and the TI is reported as 500.

As for `C=C(C)[C@@H]1CC[C@]2(COP(=O)(OCC)OCC)CC[C@]3(C)C(CCC4[C@@]5(C)CC[C@H](OC(=O)CCC(C)(C)C(=O)O)C(C)(C)C5CC[C@]43C)C12` (some centres unmarked) [Compound 5, 28-Diethoxyphosphoryl-3-O-(4′,4′-dimethylglutaryl)betulin], in data set [1] (setting [5]), the CC50 at 7 days was 15.1 ± 1.27 µM. Besides, the IC50 at 7 days in data set [1] (setting [6]) turned out to be 15.1 µM. Moreover, in the data set on HIV-1 [2], 0.22 ± 0.05 µM corresponded to half-maximal inhibition (IC50) and the TI stood at 68.

Take `C=C(C)[C@@H]1CC[C@]2(COP(=O)(OCC)OCC)CC[C@]3(C)C(CCC4[C@@]5(C)CC[C@H](OC(=O)CC(C)(C)C(=O)O)C(C)(C)C5CC[C@]43C)C12` (some centres unmarked) [Compound 3, 28-Diethoxyphosphoryl-3-O-(3′,3′-dimethylsuccinyl)betulin]: the CC50 at 7 days in data set [1] (setting [5]) came to 25.4 ± 1.54 µM. The IC50 at 7 days in data set [1] (setting [6]) was determined as 25.4 µM. For the same compound, in the data set with HIV-1 [2], inhibition was half-maximal at 0.02 ± 0.01 µM (IC50) and the TI came to 1250.

With `C=C(C)[C@@H]1CC[C@]2(C(=O)O)CC[C@]3(C)[C@H](CC[C@@H]4[C@@]5(C)CC[C@H](OC(=O)CC(C)(C)C(=O)O)C(C)(C)[C@@H]5CC[C@]43C)[C@@H]12` [BVM, 3-O-(3’,3’-dimethylsuccinyl)betulinic acid, reference compound], in data set [1], the CC50 at 7 days was 29 ± 2.43 µM and the IC50 at 7 days amounted to 29 µM. Also, in the data set on HIV-1 [2], the IC50 amounted to 0.03 ± 0.009 µM.
